Tests used:
[1] = target: T1, hMIF-P1S (Homo sapiens, UniProt P14174); test: Binding of modified human MIF (hMIF-P1S) to immobilized Compound A by BIACORE 3000; conditions: 10 μg/ml hMIF or hMIF-P1S in HBS-EP buffer, FIG. 2
T1 construct: the region encoding MIF was amplified from human complementary DNA (cDNA) library; made in house; host or cells: Escherichia coli BL21 (DE3)
T1 sequence (P14174 with tags, fused parts or gaps): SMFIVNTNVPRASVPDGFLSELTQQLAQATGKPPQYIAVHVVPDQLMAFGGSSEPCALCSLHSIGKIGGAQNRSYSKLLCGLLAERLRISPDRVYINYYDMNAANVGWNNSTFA
Procedure: The binding of human MIF (hMIF) and modified human MIF (hMIF-P1S) obtained in REFERENCE EXAMPLE 1 to Compound A was analyzed by BIACORE 3000 (manufactured by Biacore Co., Ltd.).
(§1) After Compound A was immobilized onto a sensor chip CM5 (manufactured by Biacore Co., Ltd.), HBS-EP buffer (manufactured by Biacore Co., Ltd.) containing 10 μg/ml of hMIF or hMIF-P1S was passed over the chip to assess changes in surface plasmon resonance signal as the binding of the compound to human MIF.

[2] = target: T2, rat MIF (Rattus norvegicus, UniProt P30904, G111N); test: Binding to rat MIF by surface plasmon resonance (BIACORE 3000), compound immobilized on sensor chip CM5; conditions: 1 μg/ml rat MIF in PBS with 0.005% Tween 20, FIG. 1, FIG. 4
T2 construct: made in house; host or cells: Escherichia coli BL21 (DE3)
Procedure: The binding of rat MIF obtained in REFERENCE EXAMPLE 2 to Compound A (cf., EXAMPLE 107 of WO 03/020719; see the formula below) was analyzed by BIACORE 3000 (manufactured by Biacore Co., Ltd.).
(§2) After Compound A was immobilized onto a sensor chip CM5 (manufactured by Biacore Co., Ltd.), phosphate buffered saline containing 0.005% Tween 20 containing 1 μg/ml of rat MIF was passed over the chip to assess changes in surface plasmon resonance signal as the binding of the compound to rat MIF.
as §2, with “The binding of rat MIF obtained in REFERENCE EXAMPLE 2 to” for “After”, “C (see the formula below) was analyzed by BIACORE 3000 (manufactured by Biacore Co., Ltd.). In a manner similar to EXPERIMENT 1(1), Compound C” for “A”, “Ltd.) and then,” for “Ltd.),”

[3] = target: T3, His-hMIF (Homo sapiens, UniProt P14174); test: Binding of His-hMIF (peptide added to N terminus) to immobilized Compound A by BIACORE 3000; conditions: FIG. 5
T3 construct: the region encoding MIF was amplified from human complementary DNA (cDNA) library; made in house; host or cells: Escherichia coli BL21 (DE3)
T3 sequence (P14174 with tags, fused parts or gaps): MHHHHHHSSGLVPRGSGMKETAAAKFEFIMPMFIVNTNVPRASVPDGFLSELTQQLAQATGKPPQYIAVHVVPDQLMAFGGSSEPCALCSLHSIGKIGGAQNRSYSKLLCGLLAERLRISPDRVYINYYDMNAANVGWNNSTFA
Procedure: as §1
Similarly, the binding of Compound A to His-hMIF added with the peptide to its N terminus, obtained in REFERENCE EXAMPLE 3, was analyzed.

NCCCCCCNC(=O)c1cccc(-c2nc(=O)c3ccccc3s2)n1 [Compound A, N-(6-aminohexyl)-6-(4-oxo-4H-1,3-benzothiazin-2-yl)-2-pyridinecarboxamide]
binding ability of Compound A to human MIF with N-terminal proline replaced by serine (hMIF-P1S), compared with hMIF [1]: greatly attenuated
binding of the compound to rat MIF (changes in surface plasmon resonance signal) [2]: strongly binds
binding ability of Compound A to human MIF with 30 amino acid-polypeptide containing histidine tag added to the N terminus (His-hMIF), compared with hMIF [3]: greatly attenuated

Cc1cccc2c(=O)nc(-c3cccc(C(=O)NCCCCCCN)n3)sc12 [Compound C, N-(6-aminohexyl)-6-(8-methyl-4-oxo-4H-1,3-benzothiazin-2-yl)pyridine-2 carboxamide]
binding of the compound to rat MIF (changes in surface plasmon resonance signal) [2]: weaker than that of Compound A

From patent US9044483B2, “Cell death inhibition by macrophage migration inhibitory factor and a binding substance thereto” (Takeda Pharmaceuticals Company Limited, priority 2006, dated 2015)
